# Biological target: T1, Farnesyl protein transferase (FPT) (Homo sapiens, UniProt P49354+P49356)
# T1 construct: partially purified from human placenta by ammonium sulphate fractionation; from tissue; host or cells: human placenta
# Assay: Farnesyl protein transferase (FPT) inhibition, tritiated farnesyl pyrophosphate incorporation into Kras (ras-CVIM)
# Assay type: biochemical
# Conditions: FPT partially purified from human placenta; 300 nM tritiated farnesyl pyrophosphate, 120 nM ras-CVIM, 20 minutes at 37°
# Description: Biological activity was tested as follows. Farnesyl protein transferase (FPT) was partially purified from human placenta by ammonium sulphate fractionation followed by a single Q-Sepharose® (Pharmacia, Inc) anion exchange chromatography essentially as described by Ray and Lopez-Belmonte (Ray K P and Lopez-Belmonte J (1992) Biochemical Society Transations 20 494-497). The substrate for FPT was Kras (CVIM C-terminal sequence). The cDNA for oncogenic val12 variant of human c-Ki-ras-2 4B was obtained from the plasmid pSW11-1 (ATCC). This was then subcloned into the polylinker of a suitable expression vector e.g. pIC147. The Kras was obtained after expression in the E. coli strain, BL21. The expression and purification of c-KI-ras-2 4B and the val12 variant in E. coli has also been reported by Lowe et al (Lowe P N et al. J. Biol. Chem. (1991) 266 1672-1678).
# Incubations with enzyme contained 300 nM tritiated farnesyl pyrophosphate (DuPont/New England Nuclear), 120 nM ras-CVIM, 50 mM Tris HCl pH 8.0, 5 mM MgCl2, 10 μM ZnCl2, 5 mM dithiotheitol and compounds were added at appropriate concentrations in DMSO (3% final concentration in test and vehicle control). […] Precipitated protein was then collected onto glass fibre filter mats (B) using a Tomte® cell harvester and tritiated label was measured in a Wallac®1204 Betaplate scintillation counter.
smiles,measurement,value
O=C(Cc1cccnc1)N(CC(c1ccccc1)c1ccccc1)C[C@@H]1NCC[C@@H]1S (relative stereo) [Example 2],IC50,~420 nM
